Assay results: US20090087417A1, “METHODS FOR PROMOTING DOPAMINERGIC NEURONAL DEVELOPMENT BY USING NG4A-SUBFAMILY AND WNT-LIGANDS” (priority 2002, published 2009)

How the values were obtained:
Assay type in all cases: cell-based, rat
[1] = tested on: ventral mesencephalic Nurr1+ neuronal precursors; experiment: Conversion of VM Nurr1+ precursors into Nurr1+/TH+ dopaminergic neurons (double immunostaining); settings: VM cultures; control approximately 50%
Protocol: (§1) Ventral mesencephala and cerebral cortices from embryos E13.5-14.5 obtained from timed-mated Sprague-Dawley rats were dissected, mechanically dissociated and plated at a final density of 1×10^5 cells/cm2 on poly-D-lysine coated 12- or 24-well plates in a defined, serum-free medium (N2, consisting of a 1:1 mixture of F12 and DMEM containing insulin (10 ng/ml), transferrin (100 μg/ml), putrescine (100 μM), progesterone (20 nM), selenium (30 nM), glucose (6 mg/ml), and bovine serum albumin (1 mg/ml)). Purified Type 1 astrocytes were obtained from mixed glial cultures derived from the VM or CTX of P1 rats according to a standard protocol (Wagner et al., 1999). After shaking and replating into 12-well plates, astrocytes were grown to confluency in 15% fetal bovine serum-containing media and changed to N2 medium, at which time freshly dissected VM or CTX cells were plated on top of the astrocytes at a density of 1×10^5 cells/cm2. All factors were added once, at the initiation of culture, with the exception of 5-bromodeoxyuridine (BrdU), which was added 4-6 hours prior to fixation. Cultures were maintained in a humidified 5% CO2, 95% air incubator at 37° C. and fixed after given time periods with 4% paraformaldehyde for 45 minutes prior to immunocytochemical analysis.
(§2) B1A fibroblast lines were cotransfected with the mFz8CRD-IgG/pRK5 and the pIRES puro 2 (Clontech, BD Bioscience, Erembodegem, Belgium) plasmids, using Lipofectamine Plus reagent (Invitrogen, Lidingo, Sweden) according to the instruction of the manufacturer. Upon selection for puromycin resistance (1 μg/ml Sigma, Stockholm, Sweden), clones were isolated and expanded. A clone overexpressing Fz8CRD 700× (real time RT-PCR analysis) was identified. Harvesting and partial purification of Fz8CRD conditioned media were performed as described previously. In all the blocking experiments performed, the Fz8CRD and B1A control partial purified conditioned medias were used at a final concentration of 125-250 μg/ml. […]
Only clearly stained cells were counted as positive cells. […]

[2] = tested on: VM precursor cultures / Nurr1+ precursor cells; experiment: BrdU incorporation (proliferation) in VM precursor cultures
Protocol: as §1
(§3) Fixed cultures were incubated with one of the following antibodies, diluted appropriately in phosphate-buffered saline (PBS) containing 1% bovine serum albumin and 0.3% Triton-X 100: mouse anti-BrdU, 1:50 (DAKO, Denmark), mouse anti-β-tubulin, Type III (TuJ1), 1:250 (Sigma), mouse anti-TH, 1:1000 (Incstar, USA), rabbit anti-TH, 1:250 (PelFreeze); rabbit anti-Nurr1, 1:2000 (gift from Dr. T. Perlmann, Sweden), rabbit anti-Nurr1, 1:1000 (Santa Cruz, USA) or mouse anti-Nurr1, 1:250 (BD Transduction Laboratories, USA), rabbit anti Adh2 1:4000 (gift from Dr. R. Lindahl, South Carolina). Incubations were either carried out at 4° C. overnight, or at room temperature for 1 hour. Both processes yielded similar results. After washing, cultures were incubated for 1-3 hr with appropriate secondary antibodies (biotinylated 1:500; CY2-, FITC-, or rhodamine-coupled horse-anti-mouse IgG 1:100; or goat-anti-rabbit IgG 1:100; all from Vector, USA), in the same dilution buffer. Brightfield immunostaining was visualized with the Vector Laboratory ABC immunoperoxidase kit, using either NovaRed (red), or AEC (red), SG or 3-3′ dimaminobenzidine tetrahydrochloride (DAB 0.5 mg/ml)/nickel chloride (1.6 mg/ml) (gray/black), or VIP (violet) substrates. Double-staining was performed by sequential single staining as described. The order of staining was only critical for BrdU-double labeling, in which case the BrdU procedure was always performed second. […] Photos were acquired with a Zeiss Axioplan 100M microscope and collected with a Hamamatsu camera C4742-95 (with the QED imaging software).
(§4) Only clearly stained cells were counted as positive cells. Spheres were considered positive if they contained one or more positive cell. Quantitative immunocytochemical data on individual cells represent means and standard errors of counts obtained by a blinded observer from 10-20 non-overlapping fields (cells) or in the entire well (clusters), in each of 3-4 wells per condition from 3-4 independent experiments, unless stated otherwise. For each variable, initial statistical comparisons were performed by a global ANOVA, with multiple factors of dose, time point, treatment and/or region; if significant interactions between treatment and any other variable existed, data were further divided into separate times, doses or regions. Fisher's protected least significant difference was used post hoc to identify specific points at which the treatments differed from controls (or each other) only when significant interactions between factor treatment and other variables occurred. Significance for all tests was assumed at the level of p<0.05. […]

[3] = tested on: E14.5 ventral mesencephalic precursor cultures; experiment: Number of TH+ neurons in E14.5 ventral mesencephalic precursor cultures; settings: increasing concentrations of partially purified Wnt, 3 days
Protocol: as §1
B1A fibroblast lines stably overexpressing hemagglutanin-tagged Wnt-1a, 3a, or 5a (Shimizu H., 1997) were grown in standard complete media (DMEM+10% FBS) supplemented with 100 ug/ml G-418. For collection of conditioned media, cells were replated at low density in complete media and allowed to reach 50-75% confluency, at which point cells were washed and media was replaced with serum-free N2 (with 10 μM sodium butyrate) for 24 hours. Conditioned media from sister flasks was then harvested, pooled as lots and stored at −80° C. for up to 2 months. When compared to fresh CM, no loss of activity was observed when using this collection and storage routine. T1A CM was harvested using a similar procedure, with the exception that media was collected after 3 days in vitro.
For concentration, individual lots of CM were thawed at room temperature, divided into 80 ml aliquots, loaded onto Centricon-Plus 80 columns (Millipore) and concentrated via centrifugation according to the manufacturers instructions. Following concentration, aliquots were re-pooled and frozen at −80 C after a sample was taken for determination of protein content and Western blot analysis. In brief, 20 ug of protein was loaded onto a 10% polyacrylamide mini-gel and run under denaturing conditions at 150 V for approximately 30 minutes. After dry electroblot transfer onto PVDF membranes (Hybond P, Amersham Pharmacia Biotech, Upsalla, Sweden) and pre-incubation for 30 minutes in a blocking buffer consisting of 3% bovine serum albumin in Tris-Buffered Saline with […] Triton-X 100 (TBST), blots were incubated with mouse anti-hemagglutinin (Babco) diluted 1:1000 in TBST overnight at 4 C. After washing, blots were incubated with alkaline phosphatase-coupled goat anti-mouse IgG (Santa Cruz) diluted 1:1000 in TBST for 1 hour at room temperature. Blots were visualized using the Amersham ECF reagent and blue fluorescence quantitated using a Molecular Devices Storm 840 phosphoimager.
as §2

VM cultures = experiment: TuJ1+ neurons and proliferating clusters, proportion dopaminergic, in VM cultures
Protocol: as §1, §3, §4

[4] = tested on: E14.5 ventral mesencephalic (VM) cultures; experiment: Proliferating clusters containing TH+ neurons in VM cultures; settings: 10 units, 7 days in vitro
Protocol: as §1, with “All factors were added once, at the initiation of culture, with the exception of 5-bromodeoxyuridine (BrdU), which was added 4-6 hours prior to fixation. Cultures were maintained in a humidified 5% CO2, 95% air incubator at 37° C. and fixed after given time periods with 4% paraformaldehyde for 45 minutes prior to immunocytochemical analysis.” left out
Only clearly stained cells were counted as positive cells. […] Quantitative immunocytochemical data on individual cells represent means and standard errors of counts obtained by a blinded observer from 10-20 non-overlapping fields (cells) or in the entire well (clusters), in each of 3-4 wells per condition from 3-4 independent experiments, unless stated otherwise. […]

[5] = tested on: E13.5 primary cultures from the cerebral cortex; experiment: Induction of TH in Nurr1+ E13.5 cerebral cortex primary cultures; settings: Wnt ligands or co-culture with P1 astrocytes
Protocol: as §1, §3
Only clearly stained cells were counted as positive cells. Spheres were considered positive if they contained one or more positive cell. Quantitative immunocytochemical data on individual cells represent means and standard errors of counts obtained by a blinded observer from 10-20 non-overlapping fields (cells) or in the entire well (clusters), in each of 3-4 wells per condition from 3-4 independent experiments, unless stated otherwise. […]

Wnt-3a
proportion of Nurr1 positive cells that expressed TH (Nurr1+/TH+) [1]: 30% | increase in Nurr1 and BrdU double positive precursor cells (mitosis in Nurr1+ population) ([2]; 1 day in vitro): 3 fold | BrdU incorporation in VM precursor cultures ([2]; 3 days in vitro): increased | TH+ cell numbers [3]: no effect at doses up to 100 units | proportion of VM clusters containing dopaminergic neurons (VM cultures; FIG. 3e): less than 10% | total number of TuJ1+ neurons (VM cultures; FIG. 3f): did not increase | proportion of TH+ (dopaminergic) neurons (VM cultures; FIG. 3g): decreased | increase in the number of clusters containing one or more TH+ neurons [4]: not | proportion of Nurr1 positive cortical cells that expressed TH [5]: virtually no Nurr1 positive cortical cells co-expressed TH
